Source: US9409858B2, “Selective histone deactylase 6 inhibitors” (H. LEE MOFFITT CANCER CENTER AND RESEARCH INSTITUTE, INC., priority 2012, dated 2016)
Entries after “also recorded” stand apart in the source; their conditions may differ.

How the values were obtained:
[1] = biological target: human, recombinant full-length HDAC6 (Homo sapiens (Human), UniProt Q9UBN7); assay: HDAC inhibition assay, HDAC6; type: biochemical;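 also: recombinant full-length human HDAC1 and HDAC6 made in Sf9 cells, compound preincubated 5-10 min then substrate reaction 2 h at 30 °C, ten threefold dilutions from 30 µM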
[2] = biological target: human, recombinant full-length HDAC1 (Homo sapiens (Human), UniProt Q13547); assay: HDAC inhibition assay, HDAC1; type: biochemical
[3] = tested on: acetyl α-tubulin in B16 melanoma cells; assay: Tubulin acetylation Western blot assay; type: cell-based, murine; conditions: low nanomolar treatment, 24 h
Method: (§1) […]. B16 melanoma cells were plated at 10^5 cells/well in 12 well plates and allowed to adhere overnight. A 50 mM stock of compound was then added by serial dilutions in complete medium to the indicated concentrations. Cells were incubated for 24 h under humidified conditions (37° C., 5% CO2). Wells were then washed with cold PBS, and cells were lysed in a buffer containing 10 mM Tris-HCl pH 8.0, 10% SDS, […], 100 mM DTT, and 1× protease inhibitor (Roche). Cells were lysed for 30 min on ice and then sonicated for 8 min (8 cycles of 30 s on/30 s rest). Cells were then boiled for 10 min with 6× gel loading buffer and resolved on 4-15% gradient gels and subsequently transferred onto nitrocellulose membranes. Membranes were blocked with 5% milk in PBS-T and detection of specific antigens using antibodies against acetyl-H3 and H3 (Cell Signaling), and acetyl-α-tubulin and α-tubulin (Sigma). Bands were detected by scanning blots with LI-COR Odyssey imaging system using both 700 and 800 channels.

HDAC3 = HDAC3 (Homo sapiens (Human), UniProt O15379); assay: HDAC isoform profile, HDAC3; type: biochemical; conditions: Table 3 isoform profile
[4] = tested on: histone H3 acetylation in B16 melanoma cells; assay: Histone acetylation Western blot assay; type: cell-based, murine
Method: as §1

[5] = tested on: B16 murine melanoma cells; assay: B16 melanoma cell growth inhibition assay (MTS); type: cell-based
Method: B16 murine melanoma cells were plated at 5×10^3/well in 96 well flat bottom plates. The following day, media was changed to that containing various concentrations of HDACi or matched DMSO vehicle concentrations diluted in complete medium done in triplicate. Cells were incubated for 48 hours at 37° C. and 5% CO2. […] Briefly, 20 μL of reagent were added per well and incubated at 37° C. for 3 hours. […] All values were then normalized and expressed as a percentage of medium control (100%).

[6] = tested on: STAT3 phosphorylation and recruitment to the IL-10 gene promotor; assay: STAT3 phosphorylation and recruitment to the IL-10 gene promotor in APCs; type: cell-based
MCL = assay: Antitumor effect in MCL-bearing mice; type: in vivo
macrophages = assay: Immunological effects upon macrophages; type: cell-based
[7] = tested on: antigen-specific T-cell responses; assay: Antigen-specific T-cell responses to vaccination in vivo; parameters: species or system mice; conditions: in vivo treatment
melanoma = assay: Anti-melanoma effect in vivo; conditions: alone or in combination with anti-CLTA4
[8] = tested on: JAK2/STAT3 phosphorylation; assay: JAK2/STAT3 phosphorylation in B16 murine melanoma cells in vivo
[9] = tested on: naIve and anergic T-cells; assay: In vitro antigen-presenting studies with treated macrophages; type: cell-based
[10] = Table 1, mean of two experiments ± standard deviation, 10-point enzyme assay

Sequence of human, recombinant full-length HDAC6 (Q9UBN7 whole entry): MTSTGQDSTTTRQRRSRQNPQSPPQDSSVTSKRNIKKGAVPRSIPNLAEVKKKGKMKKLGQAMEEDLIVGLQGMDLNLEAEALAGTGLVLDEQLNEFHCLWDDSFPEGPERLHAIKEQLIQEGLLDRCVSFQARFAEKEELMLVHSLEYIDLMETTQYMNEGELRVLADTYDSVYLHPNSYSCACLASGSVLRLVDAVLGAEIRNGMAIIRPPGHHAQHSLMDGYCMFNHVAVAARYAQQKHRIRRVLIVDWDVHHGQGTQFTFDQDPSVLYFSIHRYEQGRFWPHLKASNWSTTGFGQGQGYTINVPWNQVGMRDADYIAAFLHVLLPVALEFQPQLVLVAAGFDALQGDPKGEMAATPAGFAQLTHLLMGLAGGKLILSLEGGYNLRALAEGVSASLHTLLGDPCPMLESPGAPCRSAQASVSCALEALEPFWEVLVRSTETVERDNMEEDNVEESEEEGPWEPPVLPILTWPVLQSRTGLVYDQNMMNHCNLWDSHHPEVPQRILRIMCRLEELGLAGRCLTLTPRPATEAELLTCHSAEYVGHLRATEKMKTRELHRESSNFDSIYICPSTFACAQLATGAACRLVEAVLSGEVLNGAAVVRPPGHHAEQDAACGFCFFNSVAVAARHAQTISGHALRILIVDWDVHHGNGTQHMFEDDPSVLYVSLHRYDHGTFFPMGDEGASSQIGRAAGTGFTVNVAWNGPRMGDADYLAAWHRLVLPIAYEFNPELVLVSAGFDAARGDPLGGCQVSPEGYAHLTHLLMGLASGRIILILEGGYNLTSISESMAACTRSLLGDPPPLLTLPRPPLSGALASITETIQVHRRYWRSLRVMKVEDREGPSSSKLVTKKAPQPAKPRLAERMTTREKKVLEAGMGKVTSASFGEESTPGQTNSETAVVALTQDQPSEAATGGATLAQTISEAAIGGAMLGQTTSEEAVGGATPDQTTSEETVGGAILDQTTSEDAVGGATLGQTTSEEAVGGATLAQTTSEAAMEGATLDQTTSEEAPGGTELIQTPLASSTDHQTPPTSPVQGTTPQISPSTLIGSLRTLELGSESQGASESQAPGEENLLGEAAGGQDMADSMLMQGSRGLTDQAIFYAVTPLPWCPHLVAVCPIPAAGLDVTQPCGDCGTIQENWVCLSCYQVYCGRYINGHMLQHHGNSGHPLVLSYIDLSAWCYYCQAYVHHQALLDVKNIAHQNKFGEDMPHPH
Sequence of human, recombinant full-length HDAC1 (Q13547 whole entry): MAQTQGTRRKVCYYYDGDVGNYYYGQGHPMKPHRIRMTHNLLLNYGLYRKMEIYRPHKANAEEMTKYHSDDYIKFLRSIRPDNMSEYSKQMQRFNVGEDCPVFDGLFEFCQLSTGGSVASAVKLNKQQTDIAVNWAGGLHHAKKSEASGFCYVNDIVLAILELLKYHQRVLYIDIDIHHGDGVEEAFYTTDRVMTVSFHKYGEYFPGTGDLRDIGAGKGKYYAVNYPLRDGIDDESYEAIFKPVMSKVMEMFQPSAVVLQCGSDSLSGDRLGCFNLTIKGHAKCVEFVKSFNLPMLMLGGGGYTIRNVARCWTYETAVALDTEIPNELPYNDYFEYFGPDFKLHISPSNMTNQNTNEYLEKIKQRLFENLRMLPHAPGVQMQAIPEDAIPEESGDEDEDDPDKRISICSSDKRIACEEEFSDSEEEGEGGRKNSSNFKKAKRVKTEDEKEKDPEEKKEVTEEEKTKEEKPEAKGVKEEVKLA
Sequence of HDAC3 (O15379 whole entry, canonical isoform): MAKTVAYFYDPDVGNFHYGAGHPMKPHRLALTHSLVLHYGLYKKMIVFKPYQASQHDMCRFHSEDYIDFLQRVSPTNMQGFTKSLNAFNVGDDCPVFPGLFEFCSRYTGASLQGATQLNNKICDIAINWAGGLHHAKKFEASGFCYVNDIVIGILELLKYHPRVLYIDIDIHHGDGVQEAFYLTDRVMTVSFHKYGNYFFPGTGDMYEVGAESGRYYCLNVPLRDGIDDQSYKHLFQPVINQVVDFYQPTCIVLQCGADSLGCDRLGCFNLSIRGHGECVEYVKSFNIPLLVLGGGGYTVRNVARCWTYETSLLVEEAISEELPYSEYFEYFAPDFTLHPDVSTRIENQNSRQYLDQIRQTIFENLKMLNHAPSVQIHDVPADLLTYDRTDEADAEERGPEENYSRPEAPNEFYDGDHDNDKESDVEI
Sequence of HDAC3 (Q9Y618 395-489 partner): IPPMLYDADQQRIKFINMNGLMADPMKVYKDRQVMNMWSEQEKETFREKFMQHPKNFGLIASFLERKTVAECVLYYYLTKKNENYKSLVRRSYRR

SMILES	Fold Selective (HDAC1/HDAC6) ([1]; Table 1)	IC50 [1, 10] [nM]	IC50 [2, 10] [nM]	also measured
COc1ccccc1NC(=O)NCc1ccc(C(=O)NO)cc1 [Compound 1]	2	139 ± 27	265 ± 59	
COc1ccccc1NC(=O)N(CCCN(C)C)Cc1ccc(C(=O)NO)cc1 [Compound 5a, 4-((1-(3-(dimethylamino)propyl)-3-(2-methoxyphenyl)ureido)methyl)-N-hydroxybenzamide]	6	458 ± 64	2550 ± 540	
COc1ccccc1NC(=O)N(CCCO)Cc1ccc(C(=O)NO)cc1 [Compound 5b, N-hydroxy-4-((1-(3-hydroxypropyl)-3-(2-methoxyphenyl)ureido)methyl)-benzamide]	803	2.38 ± 0.38	1910 ± 570	
COc1ccccc1NC(=O)N(CCc1c[nH]c2ccccc12)Cc1ccc(C(=O)NO)cc1 [Compound 5c, 4-((1-(2-(1H-indol-3-yl)ethyl)-3-(2-methoxyphenyl)ureido)methyl)-N-hydroxybenzamide]	19	468 ± 130	8950 ± 770	
COc1ccccc1NC(=O)N(CCc1ccc(O)cc1)Cc1ccc(C(=O)NO)cc1 [Compound 5d, N-hydroxy-4-((1-(4-hydroxyphenethyl)-3-(2-methoxyphenyl)ureido)methyl)-benzamide]	292	5.8 ± 0.5	1690 ± 120	
COCCCN(Cc1ccc(C(=O)NO)cc1)C(=O)Nc1ccccc1 [Compound 5e, N-hydroxy-4-((1-(3-methoxypropyl)-3-phenylureido)methyl)benzamide]	443	11.7 ± 1.7	5180 ± 130	
COCCN(Cc1ccc(C(=O)NO)cc1)C(=O)Nc1ccccc1 [Compound 5f, N-hydroxy-4-((1-(2-methoxyethyl)-3-phenylureido)methyl)benzamide]	243	9.26 ± 0.66	2250 ± 420	
CCCCN(Cc1ccc(C(=O)NO)cc1)C(=O)Nc1ccccc1 [Compound 5g, 4-((1-butyl-3-phenylureido)methyl)-N-hydroxybenzamide]				acetyl α-tubulin levels [3]: dose-dependant increase of acetyl α-tubulin levels; also recorded: increased acetyl-tubulin levels; IC50 (HDAC3): 6680 ± 1750 nM; histone H3 acetylation ([4]; concentrations of 1 and 10 μM): observable increase in histone H3 acetylation; histone H3 acetylation ([4]; low nanomolar treatment, 24 h): without a concamanent elevation of histone H3 acetylation
O=C(NO)c1ccc(CN(CCc2ccccc2)C(=O)Nc2ccccc2)cc1 [Compound 5h, N-hydroxy-4-((1-phenethyl-3-phenylureido)methyl)benzamide]	222	14 ± 0.75	3120 ± 640	growth inhibition of B16 melanoma cells (in words) [5]: capable of inhibiting the growth of B16 melanoma cell line
CCCCN(C(=O)NCc1ccc(C(=O)NO)cc1)c1ccccc1 [Compound 8a, 4-((3-butyl-3-phenylureido)methyl)-N-hydroxybenzamide]	322	25.2 ± 2.5	8120 ± 600	
COc1ccc(NC(=O)NCc2ccc(C(=O)NO)cc2)cc1 [Compound 9a]	128	8.3	1060	
Cc1ccnc(NC(=O)NCc2ccc(C(=O)NO)cc2)c1 [Compound 9b]	263	2.2	579	
Cc1cc(NC(=O)NCc2ccc(C(=O)NO)cc2)no1 [Compound 9c]	145	6.9	1000	
COc1ccccc1N1C(=O)N(Cc2ccc(C(=O)NO)cc2)C(C)(C)C1=O [Compound 10a]				Fold Selective (HDAC1/HDAC6) ([1]; Table 2, cyclic urea compounds): 386; IC50 ([1]; Table 2, cyclic urea compounds): 74.2 nM; IC50 ([2]; Table 2, cyclic urea compounds): 28600 nM
CC(C)[C@@H]1C(=O)N(c2ccccc2)C(=O)N1Cc1ccc(C(=O)NO)cc1 [Compound 10b]				Fold Selective (HDAC1/HDAC6) ([1]; Table 2, cyclic urea compounds): 531; IC50 ([1]; Table 2, cyclic urea compounds): 22.2 nM; IC50 ([2]; Table 2, cyclic urea compounds): 11800 nM
O=C(NO)c1ccc(CN2C(=O)N[C@@H](Cc3ccccc3)C2=O)cc1 [Compound 11a]				Fold Selective (HDAC1/HDAC6) ([1]; Table 2, cyclic urea compounds): 295; IC50 ([1]; Table 2, cyclic urea compounds): 25.6 nM; IC50 ([2]; Table 2, cyclic urea compounds): 7560 nM
CN1CCc2c(c3ccccc3n2Cc2ccc(C(=O)NO)cc2)C1 [Tubastatin A]				STAT3 phosphorylation and recruitment to the IL-10 gene promotor [6]: decreased STAT3 phosphorylation and recruitment to the IL-10 gene promotor; antitumor effect (MCL): strong antitumor effect; IL-10 production (macrophages): inhibits IL-10 production; expression of co-stimulatory molecules (macrophages): increased the expression of co-stimulatory molecules; antigen-specific T-cell responses to vaccination [7]: augments antigen-specific CD4+ T-cell responses to vaccination; antigen-specific T-cell responses to vaccination ([7]; listed as Tubastatin-A): enhances antigen-specific T-cell responses to vaccination; anti-melanoma effect (melanoma): anti-melanoma effect; JAK2/STAT3 phosphorylation [8]: inhibits JAK2/STAT3 phosphorylation; activation of T-cells by treated macrophages [9]: better activators of naIve T-cells and restore the responsiveness of anergic T-cells
